What was measured:
Assay in all cases: relative viability (nuclei count vs DMSO), 5 days (fraction); higher = more cells survive
Crizotinib = compound: C[C@@H](Oc1cc(-c2cnn(C3CCNCC3)c2)cnc1N)c1c(Cl)ccc(F)c1Cl [Crizotinib]
Summary of the method: (§1)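 Lung cancer cell lines in 1536-well plates were kept overnight at 37 °C, then pinned with five library-drug doses (not always all listed) spaced by √10 on vehicle-anchored plates. After 5 days without medium change, cells were fixed, permeabilised and Hoechst-stained in one step, imaged at 4×, and nuclei were counted with MetaXpress. Viability is treated-well nuclei divided by vehicle-well nuclei, taken as the median over plates. Plates passed only with control CV below 25% and at least one doubling.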

Carfilzomib = compound: CC(C)C[C@H](NC(=O)[C@H](CCc1ccccc1)NC(=O)CN1CCOCC1)C(=O)N[C@@H](Cc1ccccc1)C(=O)N[C@@H](CC(C)C)C(=O)[C@@]1(C)CO1 [Carfilzomib]
Summary of the method: as §1

Olaparib = compound: O=C(c1cc(Cc2n[nH]c(=O)c3ccccc23)ccc1F)N1CCN(C(=O)C2CC2)CC1 [Olaparib]
Summary of the method: as §1

Cell Line	relative viability (Crizotinib; 0.01 µM)	relative viability (Crizotinib; 0.03162 µM)	relative viability (Crizotinib; 0.1 µM)	relative viability (Crizotinib; 0.3162 µM)	relative viability (Crizotinib; 1 µM)	relative viability (Crizotinib; 1 µM, anchor plate)	relative viability (Carfilzomib; 0.001 µM)	relative viability (Carfilzomib; 0.003162 µM)	relative viability (Carfilzomib; 0.01 µM)	relative viability (Carfilzomib; 0.03162 µM)	relative viability (Carfilzomib; 0.1 µM)	relative viability (Olaparib; 0.08 µM)	relative viability (Olaparib; 0.253 µM)	relative viability (Olaparib; 2.53 µM)	relative viability (Olaparib; 8 µM)	relative viability (Olaparib; 8 µM, anchor plate)
IA-LM	0.972	0.959	1.03	0.872	0.888	0.79	0.884	0.879	0.94	0.107	0.0275	1.04	0.889	0.958	0.79	0.853
LC-2-ad	0.921	1.02	1.02	–	–	0.458	1.04	1.16	1.03	0.473	0.226	1.09	0.89	0.943	0.866	0.697
LCLC-97TM1	0.902	1.1	1	0.727	0.993	0.338	0.907	1.07	0.999	0.368	0.0609	1.02	0.938	0.904	0.913	0.374
LCLC-103H	0.906	1.02	1.07	0.991	1	1.01	0.923	0.974	0.998	0.984	0.459	1.04	0.893	1	0.862	0.749
LK-2	0.972	0.87	0.943	1.03	–	–	0.937	1.31	0.96	0.205	0.201	1.19	0.896	1.09	1.01	0.803
LOU-NH91	0.945	0.905	1.09	0.949	0.985	0.729	0.962	1.08	0.745	0.314	0.309	1.16	0.943	1.01	0.962	0.914
LU99A	0.894	1.03	–	0.795	0.969	0.547	0.991	1.06	0.982	0.893	0.433	0.98	0.837	0.776	0.532	0.266
LXF-289	0.967	1.03	1.08	0.844	1.01	0.809	0.992	1.04	1.02	0.371	0.104	1.12	0.979	1.1	1.03	1.07
NCI-H23	0.808	1.1	1.04	–	0.904	0.546	0.847	1.14	0.856	0.172	0.161	1.23	0.84	0.804	0.517	0.344
NCI-H322M	0.778	–	1	0.922	0.955	0.93	0.911	1.07	1.04	0.961	0.376	1.06	0.888	0.98	0.815	0.745
NCI-H358	0.89	0.963	0.902	0.868	0.949	0.574	0.926	1.03	0.953	0.154	0.133	0.969	0.894	0.934	0.849	0.63
NCI-H441	0.99	0.941	0.947	–	1.02	0.726	1.2	1.19	0.432	0.151	0.118	1.13	1	0.942	0.76	0.525
NCI-H460	0.961	0.999	0.996	0.991	1.03	0.905	0.929	1.01	1	0.739	0.0357	1.08	0.915	0.895	0.657	0.441
NCI-H520	0.895	0.897	0.894	0.836	0.915	0.764	0.994	1.06	0.782	0.187	0.199	1.02	0.856	0.85	0.609	0.347
NCI-H522	0.919	0.954	0.888	–	0.893	–	0.889	1.11	1.01	0.734	0.375	1.08	1.01	0.973	0.703	0.679
NCI-H596	1.02	1.04	1.09	0.98	0.967	0.989	0.951	0.949	0.95	0.697	0.222	0.987	0.86	0.919	0.792	0.711
NCI-H647	–	1.01	1.01	0.783	–	1.07	0.873	1.06	0.978	0.0791	0.038	1.08	0.862	0.97	0.879	0.542
NCI-H650	1.07	0.97	1.13	0.697	1.03	0.705	0.811	1.03	0.886	0.751	0.196	1.13	0.872	0.801	0.744	0.378
NCI-H661	0.933	0.95	0.945	1.06	1	0.993	0.986	1.05	1.02	0.995	0.535	1.02	0.924	0.925	0.836	0.753
NCI-H727	0.693	1.03	1	0.779	1.17	0.868	0.886	0.998	1.12	0.698	0.423	1.04	0.753	0.783	0.736	0.741
NCI-H838	0.86	–	0.972	0.888	0.928	0.852	0.982	1.05	0.951	0.875	0.151	1.02	0.903	0.955	0.945	0.767
NCI-H1299	0.976	1.02	1.02	–	0.976	0.932	1.03	1.02	1.02	0.577	0.158	1.08	0.981	1.01	0.995	0.968
